Measured values reported in patent publication US5935932A, “Bradykinin antagonists containing pentafluorophenylalanine” (University Technology Corporation, priority 1998, dated 1999).
Like-named read-outs stand apart in the source and are kept apart here. Where a SMILES comes first, the peptide text is derived from it. [ ]: non-standard residue; d: D form. dPhe(F5) = N[C@H](Cc1c(F)c(F)c(F)c(F)c1F)C(=O)O; Oic = O=C(O)[C@@H]1C[C@@H]2CCCC[C@@H]2N1; Igl = N[C@H](C(=O)O)C1Cc2ccccc2C1; Hyp = O=C(O)[C@@H]1C[C@@H](O)CN1; NMeF = CN[C@@H](Cc1ccccc1)C(=O)O

Columns and labels:
[1] = molecular target: T1, bradykinin receptors in Guinea Pig Ileum (Cavia porcellus, UniProt O70526); test: Guinea Pig Ileum functional assay; format: cell-based
T1 construct: describes the Guinea Pig Ileum assay used to analyze the present compounds; from tissue; host or cells: isolated guinea pig ileum
T1 sequence (O70526 1-372): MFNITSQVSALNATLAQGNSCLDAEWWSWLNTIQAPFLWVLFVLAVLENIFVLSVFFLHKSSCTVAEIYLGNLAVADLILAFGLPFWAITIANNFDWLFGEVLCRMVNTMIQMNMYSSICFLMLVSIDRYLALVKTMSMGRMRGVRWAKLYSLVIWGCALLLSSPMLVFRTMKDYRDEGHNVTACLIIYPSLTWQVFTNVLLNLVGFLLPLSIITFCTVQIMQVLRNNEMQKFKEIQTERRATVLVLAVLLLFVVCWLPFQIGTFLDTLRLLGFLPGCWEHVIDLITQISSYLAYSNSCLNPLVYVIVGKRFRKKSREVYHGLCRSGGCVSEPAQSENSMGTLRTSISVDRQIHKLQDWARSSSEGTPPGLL
Text: 5. Guinea Pig Ileum functional assay
Trautshold, Handbook of Expt. Pharmacol. Vol 25, Springer Verlag pp 53-55 (1970) describes the Guinea Pig Ileum assay used to analyze the present compounds. The Trautshold method was used without changes to the parameters. U.S. Pat. No. 4,693,993, at Column 14, line 10 gives a general description of data analysis for this assay.
In this table, I=inhibitor, and numbers in parenthesis are pA2. Agonist activity are given as percent BK activity.

[2] = molecular target: T2, bradykinin receptors in Rat Uterus (Rattus norvegicus, UniProt P25023); test: Rat Uterus functional assay; format: cell-based
T2 construct: describes the Rat Uterus assay used to analyze the present compounds; from tissue; host or cells: isolated rat uterus
T2 sequence (P25023 1-396): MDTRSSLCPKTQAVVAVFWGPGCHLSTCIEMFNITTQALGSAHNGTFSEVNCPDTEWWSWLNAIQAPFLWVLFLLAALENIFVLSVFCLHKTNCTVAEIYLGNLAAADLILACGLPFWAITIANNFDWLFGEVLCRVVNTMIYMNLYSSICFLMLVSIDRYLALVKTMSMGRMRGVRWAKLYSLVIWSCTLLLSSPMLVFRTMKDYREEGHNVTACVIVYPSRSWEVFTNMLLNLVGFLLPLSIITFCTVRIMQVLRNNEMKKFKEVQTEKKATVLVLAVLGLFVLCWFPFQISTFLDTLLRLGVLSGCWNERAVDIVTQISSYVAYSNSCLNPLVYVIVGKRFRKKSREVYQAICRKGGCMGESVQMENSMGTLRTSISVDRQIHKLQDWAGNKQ
Text: 4. Rat Uterus functional assay Trautshold, Handbook of Expt. Pharmacol. […] The Trautshold method was used without changes to the parameters. U.S. Pat. No. 4,693,993, at Column 14, line 10 gives a general description of data analysis for this assay. In this table, I=inhibitor, and numbers in parenthesis are pA2. Agonist activity are given as percent BK activity.

[3] = number in parenthesis is pA2, read-out: Ileum, pA2 (I=inhibitor) (converted)
[4] = Ileum, pA2 (I=inhibitor), number in parenthesis is pA2

SMILES	Kb [1, 3] [µM]	Kb [2] [µM]	Kb [1, 4] [µM]	Uterus, agonist activity as percent BK activity ([2]; rat uterus, agonist activity) [%]	Uterus, activity in words ([2]; rat uterus, symbol without number)
N=C(N)NCCC[C@H](NC(=O)[C@H](Cc1c(F)c(F)c(F)c(F)c1F)NC(=O)[C@@H](Cc1c(F)c(F)c(F)c(F)c1F)NC(=O)[C@H](CO)NC(=O)[C@@H](NC(=O)CNC(=O)[C@@H]1C[C@@H](O)CN1C(=O)[C@@H]1CCCN1C(=O)[C@H](CCCNC(=N)N)NC(=O)[C@@H](N)CCCNC(=N)N)C1Cc2ccccc2C1)C(=O)O [Compound B10230, Arg-Arg-Pro-Hyp-Gly-Igl-Ser-Df5f-f5f-Arg]	0.02	1.58			
N=C(N)NCCC[C@@H](N)C(=O)N[C@@H](CCCNC(=N)N)C(=O)N1CCC[C@H]1C(=O)N1C[C@H](O)C[C@H]1C(=O)NCC(=O)N[C@@H](Cc1cccs1)C(=O)N[C@@H](CO)C(=O)N[C@H](Cc1c(F)c(F)c(F)c(F)c1F)C(=O)N[C@@H](Cc1c(F)c(F)c(F)c(F)c1F)C(=O)N[C@@H](CCCNC(=N)N)C(=O)O [Compound B10166, DArg-Arg-Pro-Hyp-Gly-Thi-Ser-Df5f-f5f-Arg]	0.01	0.00794			
N=C(N)NCCC[C@@H](N)C(=O)N[C@@H](CCCNC(=N)N)C(=O)N1CCC[C@H]1C(=O)N1C[C@H](O)C[C@H]1C(=O)NCC(=O)N[C@H](C(=O)N[C@@H](CO)C(=O)N[C@@H](C(=O)N[C@@H](Cc1c(F)c(F)c(F)c(F)c1F)C(=O)N[C@@H](CCCNC(=N)N)C(=O)O)C1Cc2ccccc2C1)C1Cc2ccccc2C1 [Compound B10178, DArg-Arg-Pro-Hyp-Gly-Igl-Ser-DIgl-f5f-Arg]	0.398	31.6			
N=C(N)NCCC[C@@H](N)C(=O)N[C@@H](CCCNC(=N)N)C(=O)N1CCC[C@H]1C(=O)N1C[C@H](O)C[C@H]1C(=O)NCC(=O)N[C@@H](Cc1cccs1)C(=O)N[C@@H](CO)C(=O)N[C@H](Cc1c(F)c(F)c(F)c(F)c1F)C(=O)N(CC(=O)N[C@@H](CCCNC(=N)N)C(=O)O)C1CCCCC1 [Compound B10208, DArg-Arg-Pro-Hyp-Gly-Thi-Ser-Df5f-NchG-Arg]			0.002	14.0	
CN(C(=O)[C@H](CCCNC(=N)N)NC(=O)[C@H](N)CCCNC(=N)N)[C@@H](Cc1ccccc1)C(=O)N1C[C@H](O)C[C@H]1C(=O)NCC(=O)N[C@H](C(=O)N[C@@H](CO)C(=O)N[C@H](Cc1c(F)c(F)c(F)c(F)c1F)C(=O)N1[C@H](C(=O)N[C@@H](CCCNC(=N)N)C(=O)O)C[C@@H]2CCCC[C@@H]21)C1Cc2ccccc2C1 [Compound B10150, DArg-Arg-NMF-Hyp-Gly-Igl-Ser-Df5f-Oic-Arg] (H-[dR]R[NMeF][Hyp]G[Igl]S[dPhe(F5)][Oic]R-OH; N-terminus and C-terminus assumed)	0.0126	0.00794			
N=C(N)NCCC[C@H](NC(=O)[C@H](CCCCN)NC(=O)[C@@H](N)CCCCN)C(=O)N1CCC[C@H]1C(=O)N1C[C@H](O)C[C@H]1C(=O)NCC(=O)N[C@H](C(=O)N[C@@H](CO)C(=O)N[C@H](Cc1c(F)c(F)c(F)c(F)c1F)C(=O)N[C@H](C(=O)O)C1CCCCC1)C1Cc2ccccc2C1 [Compound B10146, Lys-Lys-Arg-Pro-Hyp-Gly-Igl-Ser-Df5f-Chg]			1.26		Ag
N=C(N)NCCC[C@@H](N)C(=O)N[C@@H](CCCNC(=N)N)C(=O)N1CCC[C@H]1C(=O)N1C[C@H](O)C[C@H]1C(=O)NCC(=O)N[C@@H](Cc1c(F)c(F)c(F)c(F)c1F)C(=O)N[C@@H](CO)C(=O)N[C@@H](C(=O)N1[C@H](C(=O)N[C@@H](CCCNC(=N)N)C(=O)O)C[C@@H]2CCCC[C@@H]21)C1Cc2ccccc2C1 [Compound B10210, DArg-Arg-Pro-Hyp-Gly-f5f-Ser-DIgl-Oic-Arg]	0.0158				
